According to patent US20240335404A1, “SUBSTITUTED ESTERS CONTAINING POLYOLS AND SACCHARIDES FOR TREATING HEPATOTOXICITY AND FATTY LIVER DISEASES” (SINEW PHARMA INC., priority 2015, published 2024):

Tested on: Liver Injuries Induced by APAP
Assay: Liver injuries induced by APAP in rats (GSP, AST/ALT, HAI, survival)
Type: in vivo, SD (Sprague-Dawley) rats
Settings: APAP 2,000 mg/kg; for histological analysis of liver tissue, H&E: FIG. 4
Method: Male SD (Sprague-Dawley) rats weighing 175-280 g were purchased from the National Laboratory Animal Center (NLAC), Taiwan. The study was conducted in accordance with the Guidelines for Conducting Animal Studies of the National Health Research Institute and all rats were placed in the air/humidity controlled environment under the 12 hours of day/12 hours of night cycle and with unlimited water and food supply. During the course of the study, the weights of rats were monitored continuously with normal water supply.
In the normal control (Group 1), animals were not fed with APAP. In the control group of APAP-induced liver injuries (Group 2), animals were fed with a single dose of APAP in the amount of 2,000 mg per kilogram of body weight to induce hepatotoxicity. In the positive control group of treatment with NAC (Group 3), animals were fed with a single dose of APAP in the amount of 2,000 mg per kilogram of body weight to induce hepatotoxicity, and 4 hours later, a 24-hour treatment period by tube feeding was started, including first administration of 140 mg of NAC (per kilogram of body weight) and later administration of 70 mg of NAC (per kilogram of body weight) every 4 hours for five times. In the experimental group (Group 4), animals were fed with a single dose of APAP in the amount of 2,000 mg per kilogram of body weight to induce hepatotoxicity, and 4 hours later, a 24-hour treatment period by tube feeding was started, including six dosing with the ingredients of the present invention every 4 hours, as follows: • (a) (Group 4.1): administration of mannitol at a dose less than or equivalent to 100 mg per person every 4 hours for 24 hours, • (b) (Group 4.2): administration of double dose of mannitol as in Group 4.1 every 4 hours for 24 hours, • (c) (Group 4.3): administration of sucralose at a dose less than or equivalent to 100 mg per person every 4 hours for 24 hours, • (d) (Group 4.4): administration of double dose of sucralose of Group 4.3 every 4 hours for 24 hours, • (e) (Group 4.5): administration of a combination of 0.5 times the dose of mannitol as in Group 4.1 and 0.5 times the dose of sucralose as in Group 4.3 per kilogram of body weight every 4 hours for 24 hours, • (f) (Group 4.6): administration of a combination of the dose of mannitol as in Group 4.1 and the dose of sucralose as in Group 4.3 every 4 hours for 24 hours, • (g) (Group 4.7): administration of a combination of 1.5 times the dose of mannitol as in Group 4.1 and 1.5 times the dose of sucralose as in Group 4.3 every 4 hours for 24 hours, • (h) (Group 4.8): administration of a combination of double dose of mannitol as in Group 4.1 and double dose of sucralose as in Group 4.3 every 4 hours for 24 hours, and • (i) (Group 4.9): first administration of 140 mg of NAC per kilogram of body weight and later administration of a combination of 70 mg of NAC plus double dose of mannitol as in Group 4.1 and double dose of sucralose as in Group 4.3 every 4 hours for five times.
After the 24-hour treatment period, blood was collected from the tail artery of the rats for AST/SLT assays. Subsequently, rats were subjected to GSP tests. Finally, rats were sacrificed and histological analysis was performed.
After completion of the treatments, rats were sacrificed under ether anesthesia, and blood was collected from the tail artery of the rats and placed in a test tube containing EDTA. The plasma was centrifuged at 13,000 at 4° C. for 15 minutes and the isolated plasma was transferred to Eppendorf tubes in aliquots and stored at −80° C.
Liver damage is quantified by measuring plasma AST and ALT activity. AST and ALT are common indicators of hepatotoxicity and are measured by using the Synchron LXi 725 system (Beckman Instruments, U.S.).
Following scarification of the rats, histological analysis was performed.

[1] = dose less than or equivalent to 100 mg per person (mannitol, sucralose: × 6)
[2] = dose less than or equivalent to 100 mg per person (mannitol, sucralose: × 6), Day 14
[3] = double dose of Group 4.1 / Group 4.3, × 6
[4] = double dose of Group 4.1 / Group 4.3, × 6, Day 14

With OC[C@@H](O)[C@@H](O)[C@H](O)[C@H](O)CO [Mannitol] the “effect on APAP-induced liver injuries and survival rate” value was “liver injuries and survival rate can be improved”, the “histological analysis of liver tissue, H&E” value was “hepatocytes are relatively intact with visible nucleus and less vacuolization” and the ALT [1] was 209 ± 16 IU/L. For the same compound, the AST [1] was 455 ± 78 IU/L, the GSP [1] was 565 ± 177 mg/L and the “Total HAI score” value [1] was 4.0 ± 0.0. The “Survival (Day 14, n/n)” value [2] was 1/3, the ALT [3] was 166 ± 15 IU/L and the AST [3] was 300 ± 40 IU/L. For the same compound, the GSP [3] was 354 ± 56 mg/L, the “Total HAI score” value [3] was 4.0 ± 1.0 and the “Survival (Day 14, n/n)” value [4] was 3/3.

OC[C@H]1O[C@H](O[C@]2(CCl)O[C@H](CCl)[C@@H](O)[C@@H]2O)[C@H](O)[C@@H](O)[C@H]1Cl [Sucralose] was tested, and the “effect on APAP-induced liver injuries and survival rate” value was “liver injuries and survival rate can be improved”, the “histological analysis of liver tissue, H&E” value was “hepatocytes are relatively intact with visible nucleus and less vacuolization” and the ALT [1] was 154 ± 49 IU/L. For the same compound, the AST [1] was 331 ± 41 IU/L, the GSP [1] was 332 ± 42 mg/L and the “Total HAI score” value [1] was 4.0 ± 1.0. For the same compound, the “Survival (Day 14, n/n)” value [2] was 3/3, the ALT [3] was 136 ± 48 IU/L and the AST [3] was 277 ± 78 IU/L. The GSP [3] was 309 ± 54 mg/L, the “Total HAI score” value [3] was 3.0 ± 1.0 and the “Survival (Day 14, n/n)” value [4] was 3/3.
